The results in this text go back to patent publication US11759455B2, “Substituted 1H-imidazo[4,5-b]pyridin-2(3H)-ones and their use as GLUN2B receptor modulators” (JANSSEN PHARMACEUTICA NV, priority 2016, dated 2023).

Read-outs that look alike come from different tables or passages of the source.

For this assay, the target named is T1, human GluN1/GluN2B NMDA receptors (Homo sapiens, UniProt Q13224).
T1 construct: expressed in transfected cells
Kind of assay: Cell-based calcium flux (FLIPR) assay on cloned human NR1/NR2B ion channels expressed in mammalian cells (standard and HTS buffer variants).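 Further: stable Tet-On inducible cell line, Ca2+ influx triggered by glutamate at about EC40 plus 10 µM glycine, fluorescent dye read-out over 5 min, normalized to control wells.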 Background: Calcium assays in cells follow changes in intracellular calcium, usually with a dye or a luminescent sensor.

Where [1] appears, read: standard assay buffer (0.5 mM MgCl2 dye loading; 137 mM NaCl, 4 mM KCl assay buffer), human GluN1/GluN2B cells, read-out: NR2B IC50 (μM) standard assay.
Where [2] appears, read: HTS assay buffer (1.5 mM MgCl2 in dye loading buffer; 150 mM NaCl, 3 mM KCl in assay buffer), human GluN1/GluN2B, read-out: NR2B IC50 (μM) HTS assay.
Setting [3] is: standard assay buffer (0.5 mM MgCl2 in dye loading buffer; 137 mM NaCl, 4 mM KCl in assay buffer), human GluN1/GluN2B, read-out: NR2B IC50 (μM) standard assay.

T1 sequence (Q13224 27-1484, other chains not shown): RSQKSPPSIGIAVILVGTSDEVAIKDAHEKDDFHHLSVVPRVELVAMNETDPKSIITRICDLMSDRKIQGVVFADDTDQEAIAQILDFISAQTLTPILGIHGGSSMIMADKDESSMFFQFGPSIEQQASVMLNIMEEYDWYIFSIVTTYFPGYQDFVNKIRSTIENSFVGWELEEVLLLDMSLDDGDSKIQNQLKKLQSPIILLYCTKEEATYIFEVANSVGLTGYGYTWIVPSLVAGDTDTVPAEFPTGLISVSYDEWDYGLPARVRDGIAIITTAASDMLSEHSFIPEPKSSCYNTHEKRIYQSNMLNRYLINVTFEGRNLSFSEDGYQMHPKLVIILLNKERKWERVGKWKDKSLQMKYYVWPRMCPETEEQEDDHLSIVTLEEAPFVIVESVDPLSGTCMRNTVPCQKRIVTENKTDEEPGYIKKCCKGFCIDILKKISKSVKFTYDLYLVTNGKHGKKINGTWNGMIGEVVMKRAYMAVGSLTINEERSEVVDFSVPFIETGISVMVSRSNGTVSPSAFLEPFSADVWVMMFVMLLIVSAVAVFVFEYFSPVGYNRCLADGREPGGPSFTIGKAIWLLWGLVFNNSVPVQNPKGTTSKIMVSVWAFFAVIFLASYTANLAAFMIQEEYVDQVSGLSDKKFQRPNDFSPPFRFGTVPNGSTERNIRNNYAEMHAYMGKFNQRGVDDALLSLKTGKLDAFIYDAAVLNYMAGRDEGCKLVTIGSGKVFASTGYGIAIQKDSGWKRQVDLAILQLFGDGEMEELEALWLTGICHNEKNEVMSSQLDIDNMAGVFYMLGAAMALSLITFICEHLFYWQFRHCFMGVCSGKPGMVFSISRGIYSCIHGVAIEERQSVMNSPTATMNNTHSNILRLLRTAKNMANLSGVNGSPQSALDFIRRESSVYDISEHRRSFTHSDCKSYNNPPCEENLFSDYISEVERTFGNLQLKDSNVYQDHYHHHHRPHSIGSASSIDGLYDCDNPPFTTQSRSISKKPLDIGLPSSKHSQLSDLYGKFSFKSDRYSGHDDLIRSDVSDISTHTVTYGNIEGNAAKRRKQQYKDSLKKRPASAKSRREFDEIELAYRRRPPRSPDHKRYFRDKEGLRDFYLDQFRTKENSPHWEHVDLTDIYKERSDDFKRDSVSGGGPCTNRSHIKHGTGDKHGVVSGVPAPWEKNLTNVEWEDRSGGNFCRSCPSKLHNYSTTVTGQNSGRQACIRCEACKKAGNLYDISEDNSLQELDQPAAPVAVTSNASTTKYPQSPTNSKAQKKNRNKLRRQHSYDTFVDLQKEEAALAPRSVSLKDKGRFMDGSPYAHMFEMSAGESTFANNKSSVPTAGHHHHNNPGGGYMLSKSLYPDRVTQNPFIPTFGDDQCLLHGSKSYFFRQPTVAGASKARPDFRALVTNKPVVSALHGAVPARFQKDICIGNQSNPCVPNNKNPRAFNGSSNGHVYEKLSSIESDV

For orientation: IC50 means the concentration that gives 50% inhibition. For the compound `CCc1ccc(-c2cnc3c(c2)n(CC(=O)N(C)C)c(=O)n3C)s1` [Example 79, 2-[6-(5-Ethyl-2-thienyl)-3-methyl-2-oxo-imidazo[4,5-b]pyridin-1-yl]-N,N-dimethyl-acetamide], the half-inhibitory concentration (IC50) under setting [1] was found to be 0.031 µM.

As to `O=c1[nH]c2ncc(-c3cc(F)cc(F)c3)cc2n1Cc1cccc(Cl)c1` [Example 504, 1-[(3-Chlorophenyl)methyl]-6-(3,5-difluorophenyl)-3H-imidazo[4,5-b]pyridin-2-one], the IC50 under setting [2] was found to be 4.13 µM.

For `Cn1c(=O)n(Cc2ccncc2)c2cc(-c3cccc(C(F)(F)F)c3)cnc21` [Example 250, 3-Methyl-1-(4-pyridylmethyl)-6-[3-(trifluoromethyl)phenyl]imidazo[4,5-b]pyridin-2-one], under setting [1], the IC50 is 2 µM. For `O=c1[nH]c2ncc(-c3cccs3)cc2n1CC1CC1` [Example 472, 1-(Cyclopropylmethyl)-6-(2-thienyl)-3H-imidazo[4,5-b]pyridin-2-one], under setting [3], the IC50 amounted to 1.56 µM. Regarding `COc1ncccc1Cn1c(=O)[nH]c2ncc(-c3cccc(C(F)(F)F)c3)cc21` [Example 22, 1-[(2-Methoxy-3-pyridyl)methyl]-6-[3-(trifluoromethyl)phenyl]-3H-imidazo[4,5-b]pyridin-2-one], the IC50 under setting [1] was 26.7 µM. For `Cc1c(F)ccc(-c2cnc3c(c2)n(CC(=O)N(C)C)c(=O)n3C)c1F` [Example 423, 2-[6-(2,4-Difluoro-3-methyl-phenyl)-3-methyl-2-oxo-imidazo[4,5-b]pyridin-1-yl]-N,N-dimethyl-acetamide], the IC50 under setting [3] amounted to 0.006 µM. `Cc1cc(F)ccc1-c1cnc2[nH]c(=O)n(CCN3CCCC3)c2c1` [Example 177, 6-(4-Fluoro-2-methyl-phenyl)-1-(2-pyrrolidin-1-ylethyl)-3H-imidazo[4,5-b]pyridin-2-one]: the IC50 under setting [1] was found to be 0.502 µM. Consider `Cn1c(=O)n(CC(=O)N2CCC2)c2cc(-c3cc(F)cc(F)c3)cnc21` [Example 412, 1-[2-(Azetidin-1-yl)-2-oxo-ethyl]-6-(3,5-difluorophenyl)-3-methyl-imidazo[4,5-b]pyridin-2-one], for which, under setting [3], the 50% inhibitory concentration (IC50) was found to be 0.027 µM. For the compound `CN(C)C(=O)Cn1c(=O)n(C)c2ncc(-c3ccsc3C(F)(F)F)cc21` [Example 96, N,N-Dimethyl-2-[3-methyl-2-oxo-6-[2-(trifluoromethyl)-3-thienyl]imidazo[4,5-b]pyridin-1-yl]acetamide], the IC50 under setting [1] was 0.522 µM.

With `O=c1[nH]c2ncc(-c3cccc(C(F)F)c3)cc2n1Cc1cncc(F)c1` [Example 302, 6-[3-(Difluoromethyl)phenyl]-1-[(5-fluoro-3-pyridyl)methyl]-3H-imidazo[4,5-b]pyridin-2-one], under setting [1], the half-maximal inhibitory concentration (IC50) amounted to 0.022 µM. With `Cn1c(=O)n(CC(=O)N2CC(F)C2)c2cc(-c3ccsc3C(F)(F)F)cnc21` [Example 92, 1-[2-(3-Fluoroazetidin-1-yl)-2-oxo-ethyl]-3-methyl-6-[2-(trifluoromethyl)-3-thienyl]imidazo[4,5-b]pyridin-2-one], the IC50 under setting [1] stood at 0.249 µM. Consider `Cc1c(-c2cnc3[nH]c(=O)n(CC(=O)N4CCC4)c3c2)cccc1C(F)(F)F` [Example 329, 1-[2-(Azetidin-1-yl)-2-oxo-ethyl]-6-[2-methyl-3-(trifluoromethyl)phenyl]-3H-imidazo[4,5-b]pyridin-2-one], for which the IC50 under setting [3] turned out to be 0.75 µM.

Regarding `CCOc1ccc(F)cc1-c1cnc2[nH]c(=O)n(Cc3c(C)noc3C)c2c1` [Example 514, 1-[(3,5-Dimethylisoxazol-4-yl)methyl]-6-(2-ethoxy-5-fluoro-phenyl)-3H-imidazo[4,5-b]pyridin-2-one], the IC50 under setting [2] was more than 29 µM.

With `O=C(Cn1c(=O)[nH]c2ncc(-c3cccc(C(F)(F)F)c3)cc21)N1CCCC1` [Example 201, 1-(2-Oxo-2-pyrrolidin-1-yl-ethyl)-6-[3-(trifluoromethyl)phenyl]-3H-imidazo[4,5-b]pyridin-2-one], under setting [1], the IC50 turned out to be 0.033 µM.

In the case of `N#Cc1cccc(Cn2c(=O)[nH]c3ncc(-c4ccc(F)c(Cl)c4)cc32)c1` [Example 480, 3-[[6-(3-Chloro-4-fluoro-phenyl)-2-oxo-3H-imidazo[4,5-b]pyridin-1-yl]methyl]benzonitrile], under setting [2], the IC50 amounted to 4.22 µM. For the compound `CCOc1ccc(F)cc1-c1cnc2[nH]c(=O)n(CC(=O)c3cccs3)c2c1` [Example 460, 6-(2-Ethoxy-5-fluoro-phenyl)-1-[2-oxo-2-(2-thienyl)ethyl]-3H-imidazo[4,5-b]pyridin-2-one], the IC50 under setting [2] came to 1.77 µM.

Take `Cc1cc(Cn2c(=O)[nH]c3ncc(-c4cccc(C(F)(F)F)c4)cc32)no1` [Example 19, 1-[(5-Methylisoxazol-3-yl)methyl]-6-[3-(trifluoromethyl)phenyl]-3H-imidazo[4,5-b]pyridin-2-one]: the IC50 under setting [1] was 0.124 µM.

Regarding `O=c1[nH]c2ncc(-c3cccc(F)c3)cc2n1Cc1ccccn1` [Example 281, 6-(3-Fluorophenyl)-1-(2-pyridylmethyl)-3H-imidazo[4,5-b]pyridin-2-one], the IC50 under setting [1] came to 0.932 µM. On to `COc1cccc(Cn2c(=O)[nH]c3ncc(-c4cc(C)cs4)cc32)c1` [Example 507, 1-[(3-Methoxyphenyl)methyl]-6-(4-methyl-2-thienyl)-3H-imidazo[4,5-b]pyridin-2-one], for which the IC50 under setting [2] was found to be 8.1 µM. For `Cn1c(=O)n(CC(=O)NCCCCl)c2cc(-c3ccc(C(F)(F)F)s3)cnc21` [Example 532, N-(3-Chloropropyl)-2-[3-methyl-2-oxo-6-[5-(trifluoromethyl)-2-thienyl]imidazo[4,5-b]pyridin-1-yl]acetamide], under setting [3], the IC50 is 0.862 µM. As for `Cc1c(F)ccc(-c2cnc3[nH]c(=O)n(CCN4CC(F)C4)c3c2)c1C` [Example 184, 1-[2-(3-Fluoroazetidin-1-yl)ethyl]-6-(4-fluoro-2,3-dimethyl-phenyl)-3H-imidazo[4,5-b]pyridin-2-one], the IC50 under setting [1] was 2.57 µM. Regarding `Cc1cnc(Cn2c(=O)[nH]c3ncc(-c4cccc(C(F)(F)F)c4)cc32)c(F)c1` [Example 234, 1-[(3-Fluoro-5-methyl-2-pyridyl)methyl]-6-[3-(trifluoromethyl)phenyl]-3H-imidazo[4,5-b]pyridin-2-one], the concentration for half-maximal inhibition (IC50) under setting [1] turned out to be 1.98 µM. For `Cc1noc(Cn2c(=O)n(C)c3ncc(-c4ccc(C(F)F)s4)cc32)n1` [Example 563, 6-[5-(Difluoromethyl)-2-thienyl]-3-methyl-1-[(3-methyl-1,2,4-oxadiazol-5-yl)methyl]imidazo[4,5-b]pyridin-2-one], under setting [3], the IC50 was 0.316 µM. With `Cn1cc(Cn2c(=O)n(C)c3ncc(-c4cccc(C(F)(F)F)c4)cc32)cn1` [Example 551, 3-Methyl-1-[(1-methylpyrazol-4-yl)methyl]-6-[3-(trifluoromethyl)phenyl]imidazo[4,5-b]pyridin-2-one], the IC50 under setting [3] turned out to be 0.19 µM. As to `Cn1c(=O)n(CC(=O)N2CC(F)(F)C2)c2cc(-c3ccc(F)c(F)c3)cnc21` [Example 416, 1-[2-(3,3-Difluoroazetidin-1-yl)-2-oxo-ethyl]-6-(3,4-difluorophenyl)-3-methyl-imidazo[4,5-b]pyridin-2-one], the IC50 under setting [3] was determined as 0.01 µM. With `Cc1cccc(-c2cnc3[nH]c(=O)n(CCN4CCC4)c3c2)c1` [Example 154, 1-[2-(Azetidin-1-yl)ethyl]-6-(m-tolyl)-3H-imidazo[4,5-b]pyridin-2-one], the IC50 under setting [1] stood at 0.077 µM.

Take `CN1CCN(C(=O)Cn2c(=O)[nH]c3ncc(-c4cccc(C(F)(F)F)c4)cc32)CC1` [Example 193, 1-[2-(4-Methylpiperazin-1-yl)-2-oxo-ethyl]-6-[3-(trifluoromethyl)phenyl]-3H-imidazo[4,5-b]pyridin-2-one]: the half-maximal inhibitory concentration (IC50) under setting [1] was found to be 0.587 µM.
